Measurements as given in patent US11976083B2, “Inhibitors of peptidylarginine deiminases” (Gilead Sciences, Inc., priority 2020, dated 2024).

Target: T1, human PAD4 (Homo sapiens, UniProt Q9UM07)
T1 construct: human PAD4 (NM_012387), A2-P663, was PCR amplified; His-SUMO (N, cleaved yes); made in house; host or cells: E. coli BL21(DE3)
Assay: In vitro PAD4 BAEE biochemical assay
Conditions: BAEE substrate 3 mM, 5 nM PAD4, 2 mM calcium chloride; geometric mean of multiple experiments
In short: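 Recombinant human PAD4 (5 nM final) with 2 mM CaCl2 was preincubated with compound 30 min at 25 °C in MOPS buffer pH 7.6, then reacted with 3 mM BAEE for 2 h at 25 °C. After EDTA stop, released ammonia was detected by o-phthalaldehyde/DTT fluorescence (ex 405/em 535 nm); IC50 from four-parameter fit, geometric mean.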

T1 sequence (Q9UM07 2-663): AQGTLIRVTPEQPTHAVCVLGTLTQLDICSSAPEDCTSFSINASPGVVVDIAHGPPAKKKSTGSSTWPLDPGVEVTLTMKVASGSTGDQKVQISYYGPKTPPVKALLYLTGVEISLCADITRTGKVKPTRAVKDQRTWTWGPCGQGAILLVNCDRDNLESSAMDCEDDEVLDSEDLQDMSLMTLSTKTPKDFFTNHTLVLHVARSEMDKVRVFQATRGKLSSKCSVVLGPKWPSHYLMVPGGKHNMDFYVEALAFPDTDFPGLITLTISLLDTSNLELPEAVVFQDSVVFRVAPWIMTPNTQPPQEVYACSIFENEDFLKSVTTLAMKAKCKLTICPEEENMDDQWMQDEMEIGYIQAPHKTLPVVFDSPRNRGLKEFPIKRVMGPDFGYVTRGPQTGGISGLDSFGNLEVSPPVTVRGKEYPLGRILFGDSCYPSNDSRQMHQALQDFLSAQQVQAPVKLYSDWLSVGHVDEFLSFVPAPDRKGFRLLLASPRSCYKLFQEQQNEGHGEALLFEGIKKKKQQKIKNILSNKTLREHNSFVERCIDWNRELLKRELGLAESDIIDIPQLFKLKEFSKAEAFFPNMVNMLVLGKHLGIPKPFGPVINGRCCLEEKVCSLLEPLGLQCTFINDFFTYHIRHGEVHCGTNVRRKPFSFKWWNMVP

IC50 [nM] | SMILES
29 | [2H]C1([2H])CCCC[C@@H]2C[C@H]2C(=O)N[C@H](C)c2ccc3cc(-c4nc5cc(C(=O)N6CC[C@@H](OC)[C@@H](N)C6)cc(F)c5n4C4CC4)n1c3n2 [Example 874, (2~{R},5~{R},7~{R})-14-[5-[(3~{S},4~{R})-3-amino-4-methoxy-piperidine-1-carbonyl]-1-cyclopropyl-7-fluoro-benzimidazol-2-yl]-12,12-dideuterio-2-methyl-3,13,19-triazatetracyclo[11.5.2.0^ {5,7}.0^{16,20}]icosa-1(19), 14,16(20),17-tetraen-4-one]
804 | COc1cc(C(=O)N2CCC[C@@H](N)C2)cc2nc(-c3cc4ccc5nc4n3CCCC#Cc3cnn(C)c3C(=O)N[C@@H]5C)n(C)c12 [Example 171, (2~{R})-16-[5-[(3~{R})-3-aminopiperidine-1-carbonyl]-7-methoxy-1-methyl-benzimidazol-2-yl]-2,6-dimethyl-3,6,7,15,21-pentazatetracyclo[13.5.2.0^{5,9}.0^{18,22}] docosa-1(21),5(9),7,16,18(22),19-hexaen-10-yn-4-one]
5960 | COc1cc(C(=O)N[C@@H]2CNC[C@@H]2F)cc2nc(-c3cc4ccc5nc4n3CCCCCCC(C)(C)C(=O)N[C@@H]5C)n(C)c12 [Example 198, ~{N}-[(3~{R},4~{S})-4-fluoropyrrolidin-3-yl]-7-methoxy-1-methyl-2-[(11~{R})-8,8,11-trimethyl-9-oxo-1,10,19-triazatricyclo[10.5.2.0^{15,18}]nonadeca-12(19),13,15(18),16-tetraen-17-yl]benzimidazole-5-carboxamide]
39 | COc1cc(C(=O)N2CCC[C@@H](N)C2)cc2nc(-c3cc4ccc5nc4n3C[C@@H]3C[C@H]3CC[C@@H]3C[C@H]3C(=O)N[C@@H]5C)n(C)c12 [Example 168, (3~{R},5~{R},8~{R},10~{R},13~{R})-19-[5-[(3~{R})-3-aminopiperidine-1-carbonyl]-7-methoxy-1-methyl-benzimidazol-2-yl]-13-methyl-1,12,21-triazapentacyclo[12.5.2.0^{3,5}.0^{8,10}.0^ {17,20}]henicosa-14(21),15,17(20),18-tetraen-11-one]
44 | COc1cc(C(=O)N2[C@H]3CC[C@@H]2[C@H](N)C3)cc2nc(-c3cc4ccc5nc4n3CCCCCCCC(=O)N[C@@H]5C)n(C3CC3)c12 [Example 250, (11~{R})-17-[5-[(1~{R},2~{R},4~{S})-2-amino-7-azabicyclo[2.2.1]heptane-7-carbonyl]-1-cyclopropyl-7-methoxy-benzimidazol-2-yl]-11-methyl-1,10,19-triazatricyclo[10.5.2.0^{15,18}]nonadeca-12(19),13,15(18),16-tetraen-9-one]
82 | C[C@H]1NC(=O)C(C)(C)CCCCCCn2c(-c3nc4cc(C(=O)N[C@H]5CNCC[C@@H]5F)ccc4n3C3CC3)cc3ccc1nc32 [Example 376, 1-cyclopropyl-~{N}-[(3~{S},4~{S})-4-fluoro-3-piperidyl]-2-[(11~{R})-8,8,11-trimethyl-9-oxo-1,10,19-triazatricyclo[10.5.2.0^{15,18}]nonadeca-12(19),13,15(18),16-tetraen-17-yl]benzimidazole-5-carboxamide]
13 | C[C@@H]1c2ccc3cc(-c4nc5cc(C(=O)N6CCC[C@@H](N)[C@H]6C)cc(F)c5n4C4CC4)n(c3n2)CCCCCc2nc3ccccc3cc2C(=O)N1C [Example 832, (2~{R})-21-[5-[(2~{R},3~{R})-3-amino-2-methyl-piperidine-1-carbonyl]-1-cyclopropyl-7-fluoro-benzimidazol-2-yl]-2,3-dimethyl-3,13,20,26-tetrazapentacyclo[18.5.2.0^ {5,14}.0^{7,12}.0^ {23,27}]heptacosa-1(26), 5(14),6,8,10,12,21,23(27), 24-nonaen-4-one]
